Source: PubChem BioAssay (NCI)
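Five compound concentrations were applied to cells in 96-well plates for 48 hours; endpoints were derived by simple linear interpolation of the resulting dose-response curve. At the TGI there is no net growth.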

Key:
Assay in all cases: NCI anticancer screen, dose series, 48 h
KM12 colon = test system: KM12 colon
HOP-62 NSCLC = test system: HOP-62 NSCLC
EKVX NSCLC = test system: EKVX NSCLC
SF-268 CNS = test system: SF-268 CNS
OVCAR-3 ovarian = test system: OVCAR-3 ovarian
HT29 colon = test system: HT29 colon
SK-OV-3 ovarian = test system: SK-OV-3 ovarian
SK-MEL-5 melanoma = test system: SK-MEL-5 melanoma
786-0 renal = test system: 786-0 renal
A549 NSCLC = test system: A549 NSCLC
MOLT-4 leukemia = test system: MOLT-4 leukemia
COLO 205 colon = test system: COLO 205 colon
K-562 leukemia = test system: K-562 leukemia
M14 melanoma = test system: M14 melanoma
UACC-62 melanoma = test system: UACC-62 melanoma
SR leukemia = test system: SR leukemia
RXF 393 renal = test system: RXF 393 renal
A498 renal = test system: A498 renal
ACHN renal = test system: ACHN renal

| Compound | TGI (KM12 colon) [µM] | TGI (HOP-62 NSCLC) [µM] | TGI (EKVX NSCLC) [µM] | TGI (SF-268 CNS) [µM] | TGI (OVCAR-3 ovarian) [µM] | TGI (HT29 colon) [µM] | TGI (SK-OV-3 ovarian) [µM] | TGI (SK-MEL-5 melanoma) [µM] | TGI (786-0 renal) [µM] | TGI (A549 NSCLC) [µM] | TGI (MOLT-4 leukemia) [µM] | TGI (COLO 205 colon) [µM] | TGI (K-562 leukemia) [µM] | TGI (M14 melanoma) [µM] | TGI (UACC-62 melanoma) [µM] | TGI (SR leukemia) [µM] | TGI (RXF 393 renal) [µM] | TGI (A498 renal) [µM] | TGI (ACHN renal) [µM] |
| --- | --- | --- | --- | --- | --- | --- | --- | --- | --- | --- | --- | --- | --- | --- | --- | --- | --- | --- | --- |
| S=C(Nc1cccc(Cl)c1)Nc1ccccn1 | > 100 | > 100 | > 100 | > 100 | > 100 | > 100 | > 100 | > 100 | > 100 | > 100 | > 100 | > 100 | > 100 | > 100 | > 100 | > 100 | > 100 |  |  |
| C=CCOCn1ccc(=O)[nH]c1=O | > 100 | > 100 | > 100 | > 100 |  | > 100 | > 100 | > 100 | > 100 | > 100 | > 100 | > 100 | > 100 | > 100 | > 100 | > 100 |  | > 100 | > 100 |
| COC(=O)c1c(C(=O)OC)c2cc(C(=O)c3ccccc3)ccn2c1Cl | 72.8 | > 100 | > 100 | > 100 | 63.1 | > 100 |  | 33.2 | > 100 | > 100 | 51.5 | > 100 | > 100 | > 100 | 88.4 | 40.5 | 85 |  | > 100 |
| CC1NC(/C(=C/c2ccccc2O)NC(=O)c2ccccc2)OC1=O (centres undefined) | > 50 | > 50 | > 50 |  | > 50 | > 50 | > 50 | > 50 | > 50 | > 50 | > 50 | > 50 | > 50 | > 50 | > 50 | > 50 |  | > 50 | > 50 |
| COc1ccc(CN(CCc2c[nH]c3ccccc23)Cc2ccc(OC)cc2)cc1 | 13.9 | 11.3 | 20.5 | 18 | 9.25 | 6.41 | 17.9 | 9.74 | 12.6 | > 31.7 | > 100 |  | > 100 |  | 5.6 | > 100 | 10.8 | 9.3 | 17.8 |
| CC(C)(C)[C@H]1CO[C@]2(C)[C@@H]3C[C@@H]3C(=O)N12 | > 100 | > 100 | > 100 | > 100 | > 100 | > 100 | > 100 | > 100 | > 100 | > 100 |  | > 100 | > 100 | > 100 | > 100 | > 100 | > 100 |  | > 100 |
| O=C(c1ccncc1)n1nc(-c2ccccc2)c(N=Nc2ccc([N+](=O)[O-])cc2)c1-c1ccccc1 | > 100 | > 100 | 45.8 | > 100 | > 100 | > 100 | > 100 | > 100 | > 100 | > 100 | > 100 | > 100 | > 100 | > 100 | > 100 | > 100 |  | > 100 |  |
| COC1OC(CO)C(O)C(OC(=O)c2cc(O)c(O)c(O)c2)C1OC(=O)c1cc(O)c(O)c(O)c1 (centres undefined) | > 100 | > 100 | > 100 | > 100 | > 100 | > 100 | > 100 | > 100 | > 100 | > 100 | > 100 | > 100 | > 100 | > 100 |  | > 100 | > 100 |  | > 100 |
| O=C1N=C(c2ccccc2)O/C1=C\c1ccccc1 | > 100 | > 100 |  | > 100 | > 100 | > 100 | > 100 | > 100 | > 100 | > 100 | > 100 | > 100 |  | > 100 | > 100 | > 100 | > 100 | > 100 | > 100 |
| O=C(Nc1nc(C23CC4CC(CC(C4)C2)C3)cs1)c1cc2cc(Br)cc(Br)c2oc1=O | > 100 | > 100 | > 100 | > 100 | > 100 | > 100 | > 100 | > 100 | > 100 | > 100 | > 100 | > 100 | > 100 |  | > 100 | > 100 | > 100 | > 100 | > 100 |
| O=C(O)CN1CCN(CC(=O)O)CCN(CC(=O)O)CCN(CC(=O)O)CC1 | > 100 | > 100 | > 100 | > 100 | > 100 | > 100 |  | > 100 | > 100 | > 100 | > 100 | > 100 | > 100 | > 100 | > 100 | > 100 | > 100 | > 100 | > 100 |
| Cc1c2c(n(CCc3ccccc3)c1C)NN=C(C#N)S2(=O)=O | > 100 | > 100 | > 100 | > 100 | > 100 | > 100 | > 100 | > 100 | > 100 | > 100 | > 100 | > 100 | > 100 | > 100 | > 100 | > 100 |  |  | > 100 |
| CC1OC(O[C@H]2CC[C@]3(C)[C@H]4CC=C5[C@@H]6[C@@H](C)[C@H](C)CC[C@]6(C(=O)O)CC[C@@]5(C(=O)O)[C@]4(C)CC[C@H]3C2(C)C)C(O)C(O)C1O (some centres undefined) | > 75 | > 75 |  | > 75 | > 75 |  | > 75 | > 75 | > 75 |  | > 75 | > 75 | > 75 | > 75 | > 75 | > 75 | > 75 | > 75 | > 75 |
| C=C[C@@]1(C)CC(=O)[C@]2(O)[C@@]3(C)[C@@H](OC(C)=O)CCC(C)(C)[C@@H]3[C@H](OC(C)=O)[C@H](OC(C)=O)[C@@]2(C)O1 | > 100 | > 100 | > 100 |  | > 100 | > 100 | > 100 |  | > 100 | > 100 | > 100 |  | > 100 | > 100 | > 100 | > 100 |  | > 100 | > 100 |
| C[Si](C)(C)OC1c2[nH]c3ccccc3c2CN2C(=O)CCC12 (centres undefined) | > 100 | > 100 | > 100 | > 100 | > 100 | > 100 | > 100 | > 100 | > 100 | > 100 | > 100 | > 100 | > 100 | > 100 | > 100 | > 100 |  | > 100 | > 100 |
| Cc1ccccc1N(C)S(=O)(=O)c1ccccc1[N+](=O)[O-] | > 100 | > 100 | > 100 | > 100 | > 100 | > 100 | > 100 | 30.7 | > 100 | > 100 | > 100 | > 100 | > 100 | > 100 | > 100 | > 100 | 83 |  | > 100 |
| CCCCCCCCCCCCCCCCP(=O)(O)OP(=O)(O)OCC1OC(n2cnc3c(N)ncnc32)C(O)C1O (centres undefined) | 53.8 | 37.3 | > 100 | 95.2 | 88.1 | 43.8 | > 100 | > 100 | 53.2 | > 100 | 76.4 | > 100 | > 100 | 56.7 | 69.2 | > 100 |  |  | 62.1 |
| Cc1cc(Cl)ccc1N=NC(=O)NNc1ccc(Cl)cc1C |  | 23.9 |  | 37.5 | 31 | 36.4 |  | 26.9 | 29.9 | 30.6 | 48.9 |  | 63 | 35.3 | 24.8 | 80.7 |  | 21.8 | 40.3 |
| COc1ccc(C2C(Cl)C(=O)N2NC(=O)Cc2ccccc2)cc1 (centres undefined) | > 100 | > 100 | > 100 | > 100 | > 100 | > 100 | > 100 | > 100 | > 100 | > 100 | > 100 | > 100 | > 100 | > 100 | > 100 | > 100 | > 100 |  | > 100 |
| Cc1sc2nc3n(c(=O)c2c1C)N=C(c1ccc(Cl)cc1)CS3 | > 100 | > 100 | > 100 | > 100 | > 100 | > 100 | > 100 | > 100 | > 100 | > 100 | > 100 | > 100 | > 100 |  | > 100 | > 100 | > 100 | > 100 | > 100 |
| CC(=O)Nc1ccc2c(C)c3c4ccccc4n(C)c3nc2n1 | 40.2 | 94.8 | > 100 | 64.4 | 70.1 | > 100 |  | 21.9 | 35.3 | 59.8 | 32.1 | 30.9 |  | 52.3 | 69 | 45.6 | 34.6 | 46.2 | 33.1 |
| CC1C[C@]2(C)C(=S)Nc3ccccc3[C@@H]2Nc2ccccc21 (some centres undefined) | 28.9 | 31.8 | 57.5 | 16.4 | 32.1 | 26.6 |  | 31.7 | 34.1 | 37.8 | 56.1 | 33.8 | > 100 | 32.4 | 34.4 | > 100 | 34.8 | 36.3 | 39.5 |
| COc1cc2[nH]c(-c3cccc(N(C)C)c3)cc(=O)c2cc1OC | > 60.1 | > 100 | > 100 | > 100 |  | > 25.9 | > 100 | > 100 | > 100 | > 100 | > 100 | 19.1 | > 100 | > 100 | > 100 | > 100 |  | > 100 | > 100 |
| CC1[C@@H](OCc2ccccc2)COC(=O)N1Cc1ccccc1 (some centres undefined) | > 100 | > 100 | > 100 | > 100 | > 100 | > 100 | > 100 | > 100 | > 100 | > 100 | > 100 | > 100 | > 100 | > 100 | > 100 | > 100 |  |  | > 100 |
| O=C1CCCc2cc3c(cc21)CCC3C(=O)O (centres undefined) | > 100 | > 100 | > 100 | > 100 |  | > 100 | > 100 | > 100 | > 100 | > 100 | > 100 | > 100 | > 100 | > 100 | > 100 | > 100 | > 100 |  | > 100 |
| CCCCCc1c2nc(c(CCCCC)c3ccc([nH]3)c(CCCCC)c3ccc([nH]3)c(CCCCC)c3nc1C=C3)C=C2 | > 100 | > 100 | > 100 | > 100 | > 100 | > 100 | > 100 | > 100 | > 100 | > 100 | > 100 | > 100 | > 100 | > 100 | > 100 | > 100 |  |  | > 100 |
| COC(=O)C1(O)c2ccccc2N=C2C(=O)c3ccccc3N21 (centres undefined) | > 100 | > 100 | > 100 | > 100 | > 100 | > 100 |  | > 100 | > 100 | > 100 | > 100 | > 100 | > 100 |  |  | > 100 | > 100 | > 100 | > 100 |
